Laboratory results reported in US5900406A, “Use of antibiotics of the type 2-deoxystreptamine substituted with aminosugars to inhibit growth of microorganisms containing group I introns” (NZYM, Inc., priority 1991, dated 1999).
Where two headings read alike, the source gives them in different places.

Legend:
[1] = system: td intron (group I intron of the thymidylate synthase gene of phage T4, truncated version); assay type: biochemical; conditions: for IC50: read-out: concentration giving approximately 50% inhibition of the second splice step of the td intron; for ability to inhibit the group I intron splice reaction: antibiotics known to interact with 23S rRNA; for inhibition of group I splicing: at millimolar concentrations
Experimental: In vitro-transcribed and gel-purified^8 preRNA from a truncated version of the td intron^21 was incubated in a splicing buffer (50 mM Tris-HCl, pH 7.5, 5 mM MgCl2, 0.4 mM spermidine) for 10 min at 37° C. with GTP and gentamicin as indicated. Samples were separated on 5% acrylamide/7 M urea gels. RNA species are as follows: In-E2, intron-exon 2; L-ln, linear intron; E1-E2, ligated exons; E1, exon 1.
FIGS. 3a-c, Splicing experiments were done with the td intron as described in FIG. 2a, using several members of each family of aminoglycoside antibiotics (gentamicin, kanamycin and neomycin). Structures of the antibiotics can be found in Davies and Yagisaura in Biochemistry and Genetic Function Of Commercially Important Antibiotics, p. 329-354, Addison-Wesley, London, (1983) "Conc" is the antibiotic concentration at which about 50% inhibition was observed.
To monitor the splice process in vitro precursor RNA containing exon1, intron and exon2 was synthesized by in vitro transcription using bacteriophage RNA polymerase. During transcription, a radioactive labeled nucleotide was present in the nucleotide mixture and was incorporated in the RNA. This radioactive labeled RNA was then subjected to splicing conditions and after reaction the RNA splice products were separated from each other by electrophoresis on a denaturing acrylamide gel. The gel was dried and exposed for autoradiography.
Unspliced precursor RNA from the thymidylate synthase gene of the phage T4, which had been transcribed in vitro, and purified as previously described, (Schroeder, R., von Ahsen, U. & Belfort, M. Biochemistry 30, 3295-3303 (1991)) was incubated with increasing amounts of gentamicin under normal splicing conditions.
(§1) Materials and Methods: In vitro splicing experiments were performed with a truncated version of the td gene, containing 79 nt of exon I, 265 nt of intron sequences containing only the catalytic core (delta P6-2) and 21 nt of exon H (Schroeder, von Ahsen, & Belfort, 199 1, Biochemistry 30, 3295). The plasmids containing the Tetrahymena rRNA intron and the yeast mitochondrial cob intron I (the group II intron) were pBGST7 (Been & Cech, 1986, Cell 47, 207) and pBSbIl (Schmelzer and Schweyen, 1986, Cell 46, 557), respectively. The sunY intron is described in Michel et al. (1990, Genes & Development 4, 777). DNA was prepared by the alkaline-lysis procedure and linearized with appropriate restriction enzymes. Transcription was performed in a total volume of 20 μl at 30° C. for one (1) hour in buffer containing 40 mM Tris-HCl pH 7.5, 3 mM MgCl2, 0.4 mM spermidine, 1 mM of each NTP, 5 mM […], 10 units T7 RNA polymerase (Boehringer Mannheim), 10 μCi alpha-^35 S-CTP and 10 units RNAse inhibitor (Boehringer Mannheim). The reaction mixture was loaded on a 5% polyacrylamide/7 M urea gel. Precursor RNA was cut out of the gel and soaked in 400 μl elution buffer (10 mM Tris-HCl pH 7.5, 10 mM EDTA, 3.5 M NH4 OAc, 0.1% SDS) for two hours. After ethanol precipitation, the RNA was dissolved in H2 O-- before splicing experiments were performed the RNA was incubated in splicing buffer (40 mM Tris-HCl pH 7.5, 8 mM MgCl2, 0.4 mM spermidine) for 2 min at 56° C. For splicing of the suny intron and the Tetrahymena intron 50 mM NH4 Cl or 200 mM NaCl were added, respectively. Splicing was initiated by addition of guanosine at the appropriate concentration at 37° C. When splicing was to be inhibited by antibiotic, the antibiotic was added immediately before the guanosine. Splicing reactions were performed at 37° C. for 10'.

[2] = system: sunY intron (shortened version, construct SYC1.3); test: In vitro splicing inhibition of the sunY group I intron (GTP incorporation assay); assay type: biochemical, T4-phage
Experimental: as §1, with “DNA” for “Materials and Methods: In vitro splicing experiments were performed with a truncated version of the td gene, containing 79 nt of exon I, 265 nt of intron sequences containing only the catalytic core (delta P6-2) and 21 nt of exon H (Schroeder, von Ahsen, & Belfort, 199 1, Biochemistry 30, 3295). The plasmids containing the Tetrahymena rRNA intron and the yeast mitochondrial cob intron I (the group II intron) were pBGST7 (Been & Cech, 1986, Cell 47, 207) and pBSbIl (Schmelzer and Schweyen, 1986, Cell 46, 557), respectively. The sunY intron is described in Michel et al. (1990, Genes & Development 4, 777). DNA”, “10'. […] Samples were separated on 5% acrylamide/7 M urea gels.” for “10'.”

[3] = in vitro splicing, 37° C., 10 min

Compound	IC50 [1, 3] [µM]	other results
2"-phospho-Gentamicin C	~100	–
CN[C@@H]1[C@@H](O)[C@@H](O[C@@H]2[C@@H](O)[C@H](O[C@H]3OC(CN)=CC[C@H]3N)[C@@H](N)C[C@H]2NC(C)=O)OC[C@]1(C)O [1-N-acetyl-Sisomicin]	~100	–
CN[C@@H]1[C@@H](O)[C@@H](O[C@@H]2[C@H](O)[C@H](O[C@H]3OC(CN)=CC[C@H]3N)[C@@H](N)C[C@H]2N)OC[C@]1(C)O [5-epi-Sisomicin]	~0.5	–
CN[C@@H]1[C@@H](O[C@H]2O[C@H](CO)[C@@H](N)[C@H](O)[C@H]2O)OC2C[C@@H](N)[C@@H](O[C@H]3[C@H](O)[C@@H](O)[C@H](N)C[C@@H]3N)OC2[C@@H]1O (some centres unmarked) [Apramycin]	~200	–
CNC1C(O)C(OC2C(N)CC(N)C(OC3OC(CN)CCC3N)C2O)OCC1(C)O (centres unmarked) [Dihydrosisomicin]	~100	–
CN[C@@H]1[C@@H](O)[C@@H](O[C@@H]2[C@@H](O)[C@H](O)[C@@H](N)C[C@H]2N)OC[C@]1(C)O [Garamine]	~200	–
CN[C@@H]1[C@@H](O)[C@@H](O[C@@H]2[C@@H](O)[C@H](O[C@H]3O[C@H](CN)[C@@H](O)[C@H](O)[C@H]3O)[C@@H](N)C[C@H]2N)OC[C@]1(C)O [Gentamicin B]	~10	–
NC[C@H]1O[C@H](O[C@H]2[C@H](O)[C@@H](O[C@H]3O[C@H](CO)[C@@H](O)[C@H](N)[C@H]3O)[C@H](N)C[C@@H]2N)[C@H](N)[C@@H](O)[C@@H]1O [Kanamycin B]	~10	–
NC[C@@H]1O[C@H](O[C@H]2[C@@H](O)[C@H](O[C@@H]3[C@@H](O)[C@H](N)C[C@H](N)[C@H]3O[C@H]3O[C@H](CO)[C@@H](O)C[C@H]3N)O[C@@H]2CO)[C@H](N)[C@@H](O)[C@@H]1O[C@H]1O[C@H](CO)[C@@H](O)[C@H](O)[C@@H]1O [Lividomycin]	~500	–
NC[C@H]1O[C@H](O[C@H]2[C@H](O)[C@@H](O)[C@H](N)C[C@@H]2N)[C@H](N)[C@@H](O)[C@@H]1O [Neamine]	~200	–
NC[C@@H]1O[C@H](O[C@H]2[C@@H](O)[C@H](O[C@@H]3[C@@H](O)[C@H](N)C[C@H](N)[C@H]3O[C@H]3O[C@H](CN)[C@@H](O)[C@H](O)[C@H]3N)O[C@@H]2CO)[C@H](N)[C@@H](O)[C@@H]1O [Neomycin B]	~0.5	lowest concentration with splicing inhibition activity ([1]; activity at a concentration as low as): 0.5 µM; antibiotic concentration affecting the first step of splicing ([1]; first step affected only at this concentration): 100 µM; concentration to which the sunY intron is sensitive [2]: 10 AM
NC[C@@H]1O[C@H](O[C@H]2[C@@H](O)[C@H](O[C@@H]3[C@@H](O)[C@H](N)C[C@H](N)[C@H]3O[C@H]3O[C@H](CO)[C@@H](O)[C@H](O)[C@H]3N)O[C@@H]2CO)[C@H](N)[C@@H](O)[C@@H]1O [Paromomycin]	~100	–
CN[C@@H]1[C@@H](O)[C@@H](O[C@@H]2[C@@H](O)[C@H](O[C@H]3OC(CN)=CC[C@H]3N)[C@@H](N)C[C@H]2N)OC[C@]1(C)O [Sisomicin]	~50	–
O=C(N[C@H](CO)[C@H](O)c1ccc([N+](=O)[O-])cc1)C(Cl)Cl [chloramphenicol]	–	ability to inhibit the group I intron splice reaction [1]: not able to inhibit; inhibition of group I splicing [1]: inactive
CC[C@H]1OC(=O)[C@H](C)[C@@H](O[C@H]2C[C@@](C)(OC)[C@@H](O)[C@H](C)O2)[C@H](C)[C@@H](O[C@@H]2O[C@H](C)C[C@H](N(C)C)[C@H]2O)[C@](C)(O)C[C@@H](C)C(=O)[C@H](C)[C@@H](O)[C@]1(C)O [erythromycin]	–	ability to inhibit the group I intron splice reaction [1]: not able to inhibit; inhibition of group I splicing [1]: inactive
CN[C@H]1C[C@@H](N)[C@H](O)[C@@H](O[C@@H]2O[C@H](CO)[C@H](O)[C@@H]3OC4(O[C@H]23)O[C@H]([C@@H](N)CO)[C@H](O)[C@H](O)[C@H]4O)[C@@H]1O (some centres unmarked) [hygromycin B]	–	inhibition of group I splicing [1]: inactive
C[C@H]1O[C@H](O[C@H]2[C@H](O)[C@@H](O)[C@@H](O)[C@H](O)[C@@H]2O)[C@@H](N)C[C@@H]1NC(=N)C(=O)O [kasugamycin]	–	inhibition of group I splicing [1]: inactive
CN[C@@H]1[C@H](O)[C@H](NC)[C@H]2O[C@@]3(O)C(=O)C[C@@H](C)O[C@H]3O[C@@H]2[C@H]1O [spectinomycin]	–	inhibition of group I splicing [1]: inactive
C=C[C@]1(C)C[C@@H](OC(=O)CSCCN(CC)CC)[C@]2(C)[C@H](C)CC[C@]3(CCC(=O)[C@H]32)[C@@H](C)[C@@H]1O [tiamulin]	–	ability to inhibit the group I intron splice reaction [1]: not able to inhibit
Gentamicin C	–	IC50 [1]: ~1 µM
noursethricin	–	ability to inhibit the group I intron splice reaction [1]: not able to inhibit
